Laboratory results: PubChem BioAssay AID192 (DTP/NCI, 2004)
“And” between values parts separate entries of the source, which are not always exact repeats. Equal entries are not always repeated. Inconclusive results and toxic doses are left out.

Test system: BDF1 mice, B16 melanoma ip, median survival T/C
Experiment: NCI In Vivo Anticancer Drug Screen. Data for tumor model B16 Melanoma (intraperitoneal) in B6D2F1 (BDF1) mice
Conditions: endpoint: median survival time, higher = longer survival
Summary of the method: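 In this screen, activity was judged from survival or tumor size in treated versus vehicle-treated tumor-bearing mice, reported as T/C.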

[1] = dose: 3.13 mg/kg/injection, schedule: Q01DX009 (ip), vehicle: saline with Tween-80
[2] = dose: 6.25 mg/kg/injection, schedule: Q01DX009 (ip), vehicle: saline with Tween-80
[3] = dose: 12.5 mg/kg/injection, schedule: Q01DX009 (ip), vehicle: saline with Tween-80
[4] = dose: 12.5 mg/kg/injection, schedule: Q01DX009 (ip), vehicle: saline
[5] = dose: 25.0 mg/kg/injection, schedule: Q01DX009 (ip), vehicle: saline with Tween-80
[6] = dose: 25.0 mg/kg/injection, schedule: Q01DX009 (ip), vehicle: saline
[7] = dose: 50.0 mg/kg/injection, schedule: Q01DX009 (ip), vehicle: saline
[8] = dose: 50.0 mg/kg/injection, schedule: Q01DX009 (ip), vehicle: saline with Tween-80

O=C1NC2C(NC(=O)N2Cl)N1Cl (centres undefined)
T/C [1]: 101 % of control | T/C [2]: 98 % of control | T/C [3]: 90 % of control and 98 % of control | T/C [4]: 101 % of control | T/C [5]: 86 % of control | T/C [6]: 94 % of control | T/C (dose: 25.0 mg/kg/injection, schedule: Q04DX003 (ip), vehicle: saline with Tween-80): 105 % of control

C[C@]12CC[C@H]3[C@@H](CCC4=C[C@@H](OC5OCC(OC6OC(CO)C(O)C(O)C6O)C(O)C5O)CC[C@@]43C=O)[C@@]1(O)CCC2C1=CC(=O)OC1 (some centres undefined)
T/C (dose: 1.25 mg/kg/injection, schedule: Q01DX009 (ip), vehicle: saline): 100 % of control | T/C (dose: 2.5 mg/kg/injection, schedule: Q01DX009 (ip), vehicle: saline): 105 % of control | T/C (dose: 5.0 mg/kg/injection, schedule: Q01DX009 (ip), vehicle: saline): 89 % of control

CC(C)CNc1ccc(S(=O)(=O)c2ccc(NCC(C)C)c([N+](=O)[O-])c2)cc1[N+](=O)[O-]
T/C [1]: 100 % of control | T/C [2]: 93 % of control | T/C (dose: 6.25 mg/kg/injection, schedule: Q01DX009 (ip), vehicle: saline): 93 % of control | T/C [3]: 89 % of control | T/C [6]: 88 % of control

OC(COc1ccccc1)CN1CCCCC1 (centres undefined)
T/C (dose: 100.0 mg/kg/injection, schedule: Q01DX009 (ip), vehicle: saline with Tween-80): 112 % of control | T/C (dose: 200.0 mg/kg/injection, schedule: Q01DX009 (ip), vehicle: saline with Tween-80): 102 % of control | T/C (dose: 400.0 mg/kg/injection, schedule: Q01DX009 (ip), vehicle: saline with Tween-80): 114 % of control

COc1ccc(N=C=Nc2ccc(OC)cc2)cc1
T/C (dose: 12.5 mg/kg/injection, schedule: Q01DX009 (ip), vehicle: Klucel (hydroxypropylcellulose) (HPC)): 93 % of control | T/C (dose: 25.0 mg/kg/injection, schedule: Q01DX009 (ip), vehicle: Klucel (hydroxypropylcellulose) (HPC)): 91 % of control

c1ccc(N2CCOCC2)cc1
T/C (dose: 100.0 mg/kg/injection, schedule: Q01DX009 (ip), vehicle: Klucel (hydroxypropylcellulose) (HPC)): 96 % of control | T/C (dose: 200.0 mg/kg/injection, schedule: Q01DX009 (ip), vehicle: Klucel (hydroxypropylcellulose) (HPC)): 96 % of control

O=S(=O)(O)O.[Ga]
T/C [4]: 101 % of control | T/C [6]: 94 % of control | T/C [7]: 91 % of control

CCc1ccc(C(C)(C)C)cc1
T/C (dose: 25.0 mg/kg/injection, schedule: Q04DX003 (ip), vehicle: Klucel (hydroxypropylcellulose) (HPC)): 103 % of control | T/C (dose: 50.0 mg/kg/injection, schedule: Q04DX003 (ip), vehicle: Klucel (hydroxypropylcellulose) (HPC)): 93 % of control | T/C (dose: 100.0 mg/kg/injection, schedule: Q04DX003 (ip), vehicle: Klucel (hydroxypropylcellulose) (HPC)): 101 % of control | T/C (dose: 200.0 mg/kg/injection, schedule: Q04DX003 (ip), vehicle: Klucel (hydroxypropylcellulose) (HPC)): 100 % of control

O=C(Nc1ccccc1)Oc1ccc(OCc2ccccc2)cc1
T/C [3]: 96 % of control | T/C [5]: 93 % of control | T/C [8]: 92 % of control

ClCC[N+]12CC[N+](CCCl)(CC1)C2
T/C [3]: 95 % of control and 100 % of control | T/C [4]: 112 % of control and 95 % of control | T/C [5]: 104 % of control | T/C [6]: 109 % of control and 105 % of control | T/C [8]: 110 % of control and 116 % of control | T/C [7]: 124 % of control and 101 % of control | T/C (dose: 100.0 mg/kg/injection, schedule: Q01DX009 (ip), vehicle: saline): 101 % of control | T/C (dose: 200.0 mg/kg/injection, schedule: Q01DX009 (ip), vehicle: saline): 100 % of control | T/C (dose: 400.0 mg/kg/injection, schedule: Q01DX009 (ip), vehicle: saline): 107 % of control

CC1COS(=O)O1 (centres undefined)
T/C (dose: 10.0 mg/kg/injection, schedule: Q01DX009 (ip), vehicle: saline sonified): 102 % of control | T/C (dose: 20.0 mg/kg/injection, schedule: Q01DX009 (ip), vehicle: saline sonified): 100 % of control | T/C (dose: 40.0 mg/kg/injection, schedule: Q01DX009 (ip), vehicle: saline sonified): 102 % of control

Cc1ccc(C(=N)c2ccccc2Cc2cccc3ccccc23)c(C)c1
T/C [8]: 88 % of control

COC(C(=O)C(O)C(C)O)C1Cc2cc3cc(OC4CC(OC(C)=O)C(OC5CC(O)C(OC)C(C)O5)C(C)O4)cc(O)c3c(O)c2C(=O)C1OC1CC(OC2CC(OC3CC(C)(O)C(OC(=O)C(C)C)C(C)O3)C(O)C(C)O2)C(O)C(C)O1 (centres undefined)
T/C (dose: 0.25 mg/kg/injection, schedule: Q01DX009 (ip), vehicle: saline with Tween-80): 158 % of control | T/C (dose: 0.5 mg/kg/injection, schedule: Q01DX009 (ip), vehicle: saline): 154 % of control and 170 % of control | T/C (dose: 1.0 mg/kg/injection, schedule: Q01DX009 (ip), vehicle: saline): 173 % of control and 183 % of control | T/C (dose: 2.0 mg/kg/injection, schedule: Q01DX009 (ip), vehicle: saline): 173 % of control and 178 % of control
